In article PMC7156724, “Potent BRD4 inhibitor suppresses cancer cell-macrophage interaction” (Nature Communications, 2020):
Where “and” joins values, the source holds several entries; their conditions need not be identical. Equal entries are not always repeated.

Experiments:
B16F10 mouse melanoma = B16F10 mouse melanoma syngeneic model tumor growth; assay type: in vivo, C57BL/6 mice; set-up: Tumor volume: unit not given here; conditions: Fig.3d, individual animals
Text: (§1) PO, oral administration; QD, once daily; BID, twice daily. b–d Tumor growth curves for A2780 ovarian tumor (n = 5) (b), TMD8 large B cell lymphoma (n = 6) (c), and B16F10 melanoma (n = 5) (d) bearing mice treated with the indicated compounds once daily for 11-21 days. e, f Tumor growth curves for A375 melanoma (n = 6) (e), and patient-derived xenograft (PDX) of melanoma (n = 5) (f) bearing mice treated with the indicated compounds once daily (5 days on, 2 days off) for 21 days. For d–f, NHWD-870 used is NHWD-870-HCl synthesized using Suzuki coupling route. Data are presented as mean ± SEM in (a, b, d, f) and mean + SEM in (c, e). p values were calculated using two-tailed, unpaired t tests. *p < 0.05; **p < 0.01; ***p < 0.001. Source data are provided as a Source Data file.
(§2) 4–6 weeks old female BALB/c nude mice were used for most experiments, with the exception of 6–8 weeks old female C57BL/6 mice were used for B16F10 experiments, and 6–8 weeks old male BALB/c nude mice and SD rats were used for pharmacokinetic experiments. All animals were purchased from Shanghai SIPPR-Bk Lab Animal Co., Ltd. All animals were housed under a regimen of 12 h light/12 h dark cycles and specific pathogen-free conditions. 5×10^6 NCI-H526, ES-2, MDA-MB231, A2780, A375, B16F10, and TMD-8 cells (0.1 ml) were injected subcutaneously into female nude mice. The melanoma patient-derived xenograft model was derived from a human melanoma sample (BRAF, NARS and NF1 wild type, and p53 mutant) removed from a patient in Xiangya Hospital. Surgically removed tumor fragments were implanted subcutaneously into female NSG mice. When the tumors grew to ~1000 mm^3, they were harvested and cryopreserved or immediately re-implanted for expansion or experiments. Mouse body weight and tumor sizes were measured every 3 days. Once the tumors grew to 150–200 mm^3, mice were treated with the compounds as described in the Figures. 1 × 10^6 A2780 cells (1 ml) were injected into the abdominal cavity of nude mice. Ascitic volume and tumor weight were measured by an electronic balance. All the procedures were evaluated and approved by the Institutional Animal Care and Use Committee of Central South University and Yale University.

[1] = Metabolic stability assay, rat liver microsomes; conditions: in % (unit assumed)
Protocol: (§3) 7. Metabolic stability assay. The metabolic profile of NHWD-870 was determined using mouse, rat, dog, monkey, and human liver microsomes using the protocols […]
(§4) No. Compound ID Exat Mass Stock Conc.
(§5) 1) 100 mM potassium phosphate buffer, PH7.4; 2) 10mM MgCI2
(§6) 1) Intermediate solution: Dilute 5 μL of compound or control from stock solution (10 mM) with 45 uL DMSO,then mixed with 450 μL 1:1 Methanol/Water (Conc.: 10 0 […]
(§7) 2) Working solution: Dilute 50 μL from intermediate solution with 450 μL 100 mM potassium phosphate buffer (Conc.: 10 μM, 4.5%MeOH)
(§8) (3) NADPH regenerating system (final Isocitric dehydrogenase conc.= 1 unit/mL at […]
(§9) 1) β-Nicotinamide adenine dinucleotide phosphate, Vendor: sigma Cat. No. N0505
(§10) 2) Isocitric acid, Vendor: Sigma Cat. No. I1252
(§11) 3) Isocitric dehydrogenase, Vendor: sigma Cat. No. I2002
(§12) (4) Liver microsome solution preparation (final concentration o f 0.5 mg protein/mL) […]
(§13) Cold ACN including 100 ng/mL Tolbutamide and 100 ng/mL Labetalol as internal […]
(§14) 1) Add 10 μL compound or control working solution/well to all plates (T0, T5, T10, T20, T30, T60, NCF60) except matrix blank.
(§15) 2) Dispense 680 μL/well microsome solution to 96-well plate as reserv oir according to […]
(§16) plate map. Then add 80 μL/well to every plate by Apricot, incubate the mixture of microsome solution and compound at 37℃ for about 10 min.
(§17) 3) Add 10 μL 100 mM potassium phosphate buffer/well to NCF60, incubate at 37℃, […]
(§18) 4) After pre-warming, dispense 90 μL/well NADPH regenerating system to 96-well plate as reservoir according to the plate map. Then add 10 μL/well to every plate by Apricot to start reaction.
(§19) 5) Incubate at 37℃, start timer 2.
(§20) 6) Add 300 (μL/well) stop solution (cold in 4℃, including 100 ng/mL Tolbutamide and 100 ng/mL Labetalol) to terminate the reaction.
(§21) 7) The sampling plates are shaked for approx 10 min.
(§22) 8) Samples are centrifuged at 4000 rpm for 20 min under 4℃.
(§23) 9) While centrifuging, load 8×new 96-well plate with 300 μL HPLC water, then transfer 100 μL supernatant, mixed for LC/MS/MS.
(§24) Use equation of first order kinetics to calculate t1/2 and Clin t(mic): […]
(§25) Equation of first order kinetics: […]

[2] = Metabolic stability assay, dog liver microsomes; conditions: in % (unit assumed)
Protocol: as §3, §4, §5, §6, §7, §8, §9, §10, §11, §12, §13, §14, §15, §16, §17, §18, §19, §20, §21, §22, §23, §24, §25

[3] = Metabolic stability assay, monkey liver microsomes; conditions: in % (unit assumed)
Protocol: as §3, §4, §5, §6, §7, §8, §9, §10, §11, §12, §13, §14, §15, §16, §17, §18, §19, §20, §21, §22, §23, §24, §25

[4] = Metabolic stability assay, human liver microsomes; conditions: in % (unit assumed)
Protocol: as §3, §4, §5, §6, §7, §8, §9, §10, §11, §12, §13, §14, §15, §16, §17, §18, §19, §20, §21, §22, §23, §24, §25

[5] = Metabolic stability assay, mouse liver microsomes; conditions: in % (unit assumed)
Protocol: as §3, §4, §5, §6, §7, §8, §9, §10, §11, §12, §13, §14, §15, §16, §17, §18, §19, §20, §21, §22, §23, §24, §25

[6] = system: TMD8 large B cell lymphoma; experiment: TMD8 large B cell lymphoma model tumor growth; assay type: in vivo, mouse; conditions: Fig.3c TMD-8, 25mg/kg p.o. QD x 21D, n=6, individual animals
Text: as §1, §2

Row | Compound | Remaining in rat liver microsomes (Sup Fig.6b) ([1]; time 0) | Remaining in rat liver microsomes (Sup Fig.6b) ([1]; time 5) | Remaining in rat liver microsomes (Sup Fig.6b) ([1]; time 10) | Remaining in rat liver microsomes (Sup Fig.6b) ([1]; time 20) | Remaining in rat liver microsomes (Sup Fig.6b) ([1]; time 30) | Remaining in rat liver microsomes (Sup Fig.6b) ([1]; time 60) | Remaining in Dog liver microsomes (Sup Fig.6c) ([2]; time 0) | Remaining in Dog liver microsomes (Sup Fig.6c) ([2]; time 5) | Remaining in Dog liver microsomes (Sup Fig.6c) ([2]; time 10) | Remaining in Dog liver microsomes (Sup Fig.6c) ([2]; time 20) | Remaining in Dog liver microsomes (Sup Fig.6c) ([2]; time 30) | Remaining in Dog liver microsomes (Sup Fig.6c) ([2]; time 60) | Remaining in Monkey liver microsomes (Sup Fig.6d) ([3]; time 0) | Remaining in Monkey liver microsomes (Sup Fig.6d) ([3]; time 5) | Remaining in Monkey liver microsomes (Sup Fig.6d) ([3]; time 10) | Remaining in Monkey liver microsomes (Sup Fig.6d) ([3]; time 20) | Remaining in Monkey liver microsomes (Sup Fig.6d) ([3]; time 30) | Remaining in Monkey liver microsomes (Sup Fig.6d) ([3]; time 60) | Remaining in Human liver microsomes (Sup Fig.6e) ([4]; time 0) | Remaining in Human liver microsomes (Sup Fig.6e) ([4]; time 5) | also measured
1 | Cc1nnn(C)c1-c1cnc2c3c4cnn(C)c4ccc3n([C@H](c3ccccc3)C3CCOCC3)c2c1 [compound 870] |  |  |  |  |  |  |  |  |  |  |  |  |  |  |  |  |  |  |  |  | Tumor volume (B16F10 mouse melanoma; 1mg/kg, day 0): 0; Tumor volume (B16F10 mouse melanoma; 1mg/kg, day 3): 56 and 75 and 36 and 4 and 137; Tumor volume (B16F10 mouse melanoma; 1mg/kg, day 7): 88 and 81 and 51 and 56 and 405; Tumor volume (B16F10 mouse melanoma; 1mg/kg, day 11): 198 and 63 and 191 and 162 and 405; Tumor volume (B16F10 mouse melanoma; 2mg/kg, day 0): 0; Tumor volume (B16F10 mouse melanoma; 2mg/kg, day 3): 14 and 36 and 172 and 3.5 and 2.5; Tumor volume (B16F10 mouse melanoma; 2mg/kg, day 7): 40 and 75 and 288 and 2.1 and 2.5; Tumor volume (B16F10 mouse melanoma; 2mg/kg, day 11): 0 and 237 and 500 and 2.5 and 1.6
2 | C[C@]12CC[C@H]3[C@@H](CCC4=CC(=O)CC[C@@]43C)[C@@H]1CC[C@@H]2O [Testosterone] | 100 | 0.549 | 0 | 0 | 0 | 0 | 100 | 51.913 | 27.194 | 14.015 | 6.615 | 0 | 100 | 72.293 | 57.852 | 51.22 | 37.184 | 14.336 | 100 | 82.349 | Remaining in Human liver microsomes (Sup Fig.6e) ([4]; time 10): 75.006; Remaining in Human liver microsomes (Sup Fig.6e) ([4]; time 20): 64.528; Remaining in Human liver microsomes (Sup Fig.6e) ([4]; time 30): 50.522; Remaining in Human liver microsomes (Sup Fig.6e) ([4]; time 60): 21.403
3 | O=C(O)Cc1ccccc1Nc1c(Cl)cccc1Cl [Diclofenac] | 100 | 75.339 | 59.077 | 35.911 | 22.814 | 4.586 | 100 | 94.367 | 98.224 | 89.21 | 87.634 | 78.588 | 100 | 88.217 | 88.366 | 94.477 | 85.252 | 84.048 | 100 | 68.568 | Remaining in mouse liver microsomes (Sup Fig.6a) ([5]; time 0): 100; Remaining in mouse liver microsomes (Sup Fig.6a) ([5]; time 5): 92.277; Remaining in mouse liver microsomes (Sup Fig.6a) ([5]; time 10): 89.557; Remaining in mouse liver microsomes (Sup Fig.6a) ([5]; time 20): 85.421; Remaining in mouse liver microsomes (Sup Fig.6a) ([5]; time 30): 78.177; Remaining in mouse liver microsomes (Sup Fig.6a) ([5]; time 60): 51.477; Remaining in Human liver microsomes (Sup Fig.6e) ([4]; time 10): 50.449; Remaining in Human liver microsomes (Sup Fig.6e) ([4]; time 20): 28.02; Remaining in Human liver microsomes (Sup Fig.6e) ([4]; time 30): 16.826; Remaining in Human liver microsomes (Sup Fig.6e) ([4]; time 60): 2.933
4 | C=CC(=O)N1CCC[C@@H](n2nc(-c3ccc(Oc4ccccc4)cc3)c3c(N)ncnc32)C1 [Ibrutinib, reference compound] |  |  |  |  |  |  |  |  |  |  |  |  |  |  |  |  |  |  |  |  | Tumor volume ([6]; day 0): 154.352 mm^3 and 126.234 mm^3 and 92.4707 mm^3 and 208.237 mm^3 and 189.187 mm^3 and 112.682 mm^3; Tumor volume ([6]; day 3): 237.85 mm^3 and 276.464 mm^3 and 91.3933 mm^3 and 282.765 mm^3 and 163.343 mm^3 and 107.8 mm^3; Tumor volume ([6]; day 7): 352.832 mm^3 and 423.619 mm^3 and 205.187 mm^3 and 365.185 mm^3 and 345.367 mm^3 and 135.53 mm^3; Tumor volume ([6]; day 10): 473.704 mm^3 and 751.605 mm^3 and 389.433 mm^3 and 510.345 mm^3 and 486.864 mm^3 and 230.549 mm^3; Tumor volume ([6]; day 14): 835.097 mm^3 and 1026.1 mm^3 and 435.155 mm^3 and 707.68 mm^3 and 720.134 mm^3 and 302.373 mm^3; Tumor volume ([6]; day 17): 1017.47 mm^3 and 1815.12 mm^3 and 476.012 mm^3 and 822.388 mm^3 and 594.62 mm^3 and 293.12 mm^3; Tumor volume ([6]; day 21): 1538.44 mm^3 and 2230.02 mm^3 and 727.616 mm^3 and 1254.35 mm^3 and 985.284 mm^3 and 887.285 mm^3
